Patent US12404283B2, “c-MYC mRNA translation modulators and uses thereof in the treatment of cancer” (Anima Biotech Inc., priority 2022, dated 2025)

Test system: c-Myc
Test: c-Myc immunofluorescence assay
Assay type: cell-based, human
Settings: A549 cells, 24 hours treatment, anti-c-Myc immunofluorescence
Procedure, shortened: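 High-content imaging (20×) of PFA-fixed A549 cells immunostained for c-Myc with DAPI nuclei, after 24 h compound treatment at increasing concentrations. Per-cell c-Myc signal in identified cell regions was plotted against dose and fitted by logistic regression to give EC50.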

| SMILES | Myc Efficacy (−LogEC50) |
| --- | --- |
| CCC(CNC(=O)c1ccc2c(c1)sc1nc(-c3ccc(C(=O)NC)cc3)cn12)N(C)C (centres unmarked) [compound 208, N-(2-(dimethylamino)butyl)-2-(4-(methylcarbamoyl)phenyl) benzo[d]imidazo[2,1-b]thiazole-7-carboxamide] | + (+ >3 and <5) |
| CNC(=O)c1ccc(-c2cn3c(n2)sc2cc(C(=O)N[C@H]4CCN(C5CCOCC5)C4)ccc23)cc1 [compound 209, (S)-2-(4-(methylcarbamoyl)phenyl)-N-(1-(tetrahydro-2H-pyran-4-yl)pyrrolidin-3-yl)benzo[d]imidazo[2,1-b]thiazole-7-carboxamide] | + (+ >3 and <5) |
| CNC(=O)c1ccc(-c2cn3c(n2)sc2cc(C(=O)NCC4(C)CCOC4)ccc23)cc1 (centres unmarked) [compound 210, 2-(4-(methylcarbamoyl)phenyl)-N-((3-methyltetrahydrofuran-3-yl)methyl)benzo[d]imidazo [2,1-b]thiazole-7-carboxamide] | + (+ >3 and <5) |
| CNC(=O)c1ccc(-c2cn3c(n2)sc2cc(C(=O)NCCOC(C)C)ccc23)cc1 [compound 211, N-(2-isopropalyethyl)-2-(4-(methylcarbamoyl)phenyl) benzo[d]imidazo[2,1-b]thiazole-7-carboxamide] | − (− ≤3) |
| CNC(=O)c1ccc(-c2cn3c(n2)sc2cc(C(=O)NC[C@H]4CCCN(C)C4)ccc23)cc1 [compound 212, (R)-2-(4-(methylcarbamoyl)phenyl)-N-((1-methylpiperidin-3-yl)methyl)benzo[d]imidazo [2,1-b]thiazole-7-carboxamide] | + (+ >3 and <5) |
| CNC(=O)c1ccc(-c2cn3c(n2)sc2cc(C(=O)N[C@@H](CO)c4ccccc4)ccc23)cc1 [compound 213, (R)-N-(2-hydroxy-1-phenylethyl)-2-(4-(methylcarbamoyl)phenyl) benzo[d]imidazo[2,1-b]thiazole-7-carboxamide] | + (+ >3 and <5) |
| CCN1CCC[C@@H]1CNC(=O)c1ccc2c(c1)sc1nc(-c3ccc(C(=O)NC)cc3)cn12 [compound 214, (R)-N-((1-ethylpyrrolidin-2-yl)methyl)-2-(4-(methylcarbamoyl)phenyl) benzo[d]imidazo[2,1-b]thiazole-7-carboxamide] | + (+ >3 and <5) |
| CCN1CCC(CNC(=O)c2ccc3c(c2)sc2nc(-c4ccc(C(=O)NC)cc4)cn23)CC1 [compound 215, N-((1-ethylpiperidin-4-yl)methyl)-2-(4-(methylcarbamoyl)phenyl) benzo[d]imidazo[2,1-b]thiazole-7-carboxamide] | − (− ≤3) |
| CNC(=O)c1ccc(-c2cn3c(n2)sc2cc(C(=O)NCC4(N(C)C)CCCCC4)ccc23)cc1 [compound 216, N-((1-(dimethylamino)cyclohexyl)methyl)-2-(4-(methylcarbamoyl)phenyl) benzo[d]imidazo[2,1-b]thiazole-7-carboxamide] | + (+ >3 and <5) |
| CNC(=O)c1ccc(-c2cn3c(n2)sc2cc(C(=O)NCCN(C(C)C)C(C)C)ccc23)cc1 [compound 217, N-(2-(diisopropylamino)ethyl)-2-(4-(methylcarbamoyl)phenyl) benzo[d]imidazo[2,1-b]thiazole-7-carboxamide] | + (+ >3 and <5) |
| CCN(CC)CCCNC(=O)c1ccc2c(c1)sc1nc(-c3ccc(C(NC)C(F)(F)F)cc3)cn12 (centres unmarked) [compound 218, N-(3-(diethylamino)propyl)-2-(4-(2,2,2-trifluoro-1-(methylamino)ethyl)phenyl) benzo[d]imidazo[2,1-b]thiazole-7-carboxamide] | ++ (++ ≥5 and <6) |
| CNC(=O)c1ccc(-c2cn3c(n2)sc2cc(C(=O)N[C@H]4COC[C@@H]4O)ccc23)cc1 [compound 219, N-((3S,4R)-4-hydroxytetrahydrofuran-3-yl)-2-(4-(methylcarbamoyl)phenyl) benzo[d]imidazo[2,1-b]thiazole-7-carboxamide] | + (+ >3 and <5) |
| CNC(=O)c1ccc(-c2cn3c(n2)sc2cc(C(=O)N[C@@H](C)CN)ccc23)cc1 [compound 220, (S)-N-(1-aminopropan-2-yl)-2-(4-(methylcarbamoyl)phenyl) benzo[d]imidazo[2,1-b]thiazole-7-carboxamide] | + (+ >3 and <5) |
| CNC(=O)c1ccc(-c2cn3c(n2)sc2cc(C(=O)NC(C)Cn4cccn4)ccc23)cc1 (centres unmarked) [compound 221, N-(1-(1H-pyrazol-1-yl)propan-2-yl)-2-(4-(methylcarbamoyl)phenyl) benzo[d]imidazo[2,1-b]thiazole-7-carboxamide] | + (+ >3 and <5) |
| CNC(=O)c1ccc(-c2cn3c(n2)sc2cc(C(=O)N[C@H]4CCNC4)ccc23)cc1 [compound 222, (S)-2-(4-(methylcarbamoyl)phenyl)-N-(pyrrolidin-3-yl)benzo[d]imidazo[2,1-b]thiazole-7-carboxamide] | + (+ >3 and <5) |
| CNC(=O)c1ccc(-c2cn3c(n2)sc2cc(C(=O)NCc4nncn4C4CC4)ccc23)cc1 [compound 223, N-((4-cyclopropyl-4H-1,2,4-triazol-3-yl)methyl)-2-(4-(methylcarbamoyl)phenyl) benzo[d]imidazo[2,1-b]thiazole-7-carboxamide] | − (− ≤3) |
| CNC(=O)c1ccc(-c2cn3c(n2)sc2cc(C(=O)NC[C@H]4CCCN4)ccc23)cc1 [compound 224, (R)-2-(4-(methylcarbamoyl)phenyl)-N-(pyrrolidin-2-ylmethyl)benzo[d]imidazo[2,1-b]thiazole-7-carboxamide] | − (− ≤3) |
| CNC(=O)c1ccc(-c2cn3c(n2)sc2cc(C(=O)N[C@H]4CCN(C)C4)ccc23)cc1 [compound 225, (S)-2-(4-(methylcarbamoyl)phenyl)-N-(1-methylpyrrolidin-3-yl)benzo[d]imidazo[2,1-b]thiazole-7-carboxamide] | + (+ >3 and <5) |
| CNC(=O)c1ccc(-c2cn3c(n2)sc2cc(C(=O)NCC4CC(O)C4)ccc23)cc1 (centres unmarked) [compound 226, N-((3-hydroxycyclobutyl)methyl)-2-(4-(methylcarbamoyl)phenyl) benzo[d]imidazo[2,1-b]thiazole-7-carboxamide] | − (− ≤3) |
| CNC(=O)c1ccc(-c2cn3c(n2)sc2cc(C(=O)N[C@H]4CCCNC4)ccc23)cc1 [compound 227, (S)-2-(4-(methylcarbamoyl)phenyl)-N-(piperidin-3-yl)benzo[d] imidazo[2,1-b]thiazole-7-carboxamide] | ++ (++ ≥5 and <6) |
| CNC(=O)c1ccc(-c2cn3c(n2)sc2cc(C(=O)N[C@H]4CCCCN(C)C4=O)ccc23)cc1 [compound 228, (S)-N-(1-methyl-2-oxoazepan-3-yl)-2-(4-(methylcarbamoyl)phenyl) benzo[d]imidazo[2,1-b]thiazole-7-carboxamide] | + (+ >3 and <5) |
| CNCCCCNC(=O)c1ccc2c(c1)sc1nc(-c3ccc(C(=O)NC)cc3)cn12 [compound 229, N-(4-(methylamino)butyl)-2-(4-(methylcarbamoyl)phenyl) benzo[d]imidazo[2,1-b]thiazole-7-carboxamide] | + (+ >3 and <5) |
| CNC(=O)c1ccc(-c2cn3c(n2)sc2cc(C(=O)NCC4CCC5(CCNCC5)O4)ccc23)cc1 (centres unmarked) [compound 230, N-((1-oxa-8-azaspiro[4.5]decan-2-yl)methyl)-2-(4-(methylcarbamoyl)phenyl) benzo[d]imidazo[2,1-b]thiazole-7-carboxamide] | + (+ >3 and <5) |
